Measured values from patent publication US5380834A, “Immuno-suppressive agent” (Ishihara Sangyo Kaisha Ltd., priority 1992, dated 1995).
≈ marks a conversion by molar mass, not a printed value.

Tests used:
murine thymocytes = experiment: Effects on the mitogenic response by murine thymocytes (Con A stimulation, 3H-TdR uptake); format: cell-based, BALB/c murine; details: Mus musculus, Thymocyte; BALB/c thymocytes, Con A 5 μg/ml, 48 hours, 3H-TdR uptake; read-out: IC50 value, a (mitogenic response of murine thymocytes)
murine bone mallow cells = experiment: Effects on the murine bone mallow cells (proliferation, 3H-TdR uptake); format: cell-based, BALB/c mouse; details: Mus musculus, bone marrow cells; 20% L929 culture supernatant, 48 hours, 3H-TdR uptake; Tables 12-15; read-out: IC50 value, c (murine bone mallow cells)
[1] = system: IgM antibody production from murine spleen B cells; experiment: Effects on the IgM antibody production from murine spleen cells (LPS + IL4); format: cell-based, BALB/c mouse; details: Mus musculus, B-cell, 168 h; spleen B cells, LPS 10 μg/ml, IL4 100 U/ml, 7 days, enzyme-immunoassay; read-out: IC50 value, IgM antibody production

| IC50 (murine thymocytes) | IC50 [1] | Structure (SMILES) | IC50 (murine bone mallow cells) |
| --- | --- | --- | --- |
| 35 µg/mL (≈ 230 µM) | > 1000 µg/mL | C#C[C@]1(O)C=C[C@H]2CO[C@@H]1O2 [Compound 29] | > 1000 µg/mL |
| 15 µg/mL (≈ 117 µM) | 25 µg/mL | O[C@H]1C=C[C@H]2CO[C@@H]1O2 [Compound 1, 1,6-anhydro-3,4-dideoxy-β-D-threo-hex-3-enopyranose] | 69 µg/mL (≈ 539 µM) |
| 190 µg/mL (≈ 855 µM) | 100 µg/mL | O=C(O[C@H]1C=C[C@H]2CO[C@@H]1O2)c1ccco1 [Compound 17, 1,6-anhydro-3,4-dideoxy-2-O-(2-furancarbonyl)-β-D-threo-hex-3-enopyranose] | 510 µg/mL (≈ 2300 µM) |
